The target in one series is T1, COX-2 (Mus musculus, UniProt Q05769).
T1 sequence (Q05769 18-604): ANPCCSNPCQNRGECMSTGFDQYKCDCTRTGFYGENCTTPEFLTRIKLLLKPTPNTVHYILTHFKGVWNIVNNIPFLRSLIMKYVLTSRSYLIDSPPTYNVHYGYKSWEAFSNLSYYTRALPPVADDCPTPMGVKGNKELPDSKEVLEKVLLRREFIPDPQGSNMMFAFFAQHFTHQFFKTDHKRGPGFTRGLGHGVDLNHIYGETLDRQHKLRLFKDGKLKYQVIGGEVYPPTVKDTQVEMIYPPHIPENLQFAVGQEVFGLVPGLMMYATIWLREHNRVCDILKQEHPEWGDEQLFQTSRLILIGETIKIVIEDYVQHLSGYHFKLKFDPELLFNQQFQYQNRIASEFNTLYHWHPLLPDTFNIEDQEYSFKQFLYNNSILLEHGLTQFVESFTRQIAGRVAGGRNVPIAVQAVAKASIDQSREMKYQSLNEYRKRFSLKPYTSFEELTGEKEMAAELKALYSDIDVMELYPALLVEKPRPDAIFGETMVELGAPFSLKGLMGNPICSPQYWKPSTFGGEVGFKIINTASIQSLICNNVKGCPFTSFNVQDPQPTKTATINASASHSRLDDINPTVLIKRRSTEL
Briefly: Evaluation of COX-2 activity: PGE2 formation in aspirin-treated, LPS-stimulated mouse peritoneal macrophages. The class given is cell-based. How it is done:
(§1) Evaluation of in vitro COX-2 and COX-1 Activity [J. Pharmacol. Exp. Ther. 166, 96 (1969)]
(§2) The abdominal skin of a C57BL/6 mouse was sanitized with 70% aqueous ethanol, and was removed without damaging the peritoneum. 5 ml of cold phosphate buffer solution (PBS) was then injected into the abdominal cavity. After a minute, the peritoneal fluid containing the macrophages was collected using a syringe and a needle. The collected fluid was centrifuged for 5 min at 1500 rpm to afford pellets of cells. The pellets were then dispersed in the RPMI-1640 culture medium containing 100 units/ml penicillin and 100 μg/ml streptomycin.
The pellets dispersed as above were treated with 500 μM aspirin in order to knock out the activity of the COX-1 enzymes in the cells. The suspension was then diluted with the RPMI-1640 medium to contain 1×10^6 cells/ml. 100 μl of the suspension was added to each well of a 96-well ELISA plate. Then the plate was incubated for 2 hrs at 37° C. under 5% CO2 in order to fix the macrophages onto the plate. The cells, which were not fixed onto the plate were removed by washing with PBS two times. […] The RPMI-1640 medium containing 3% fetal bovine serum albumin was added to each well of the plate, which was followed by stimulation with 10 μg/ml lipopolysaccharide (LPS). […] The LPS-treated suspensions were incubated for 16 hours at 37° C. under 5% CO2 to induce COX-2. Then the culture medium was removed and the macrophages were washed two times with PBS. Then 130 μl RPMI-1640 culture medium was added to each well and the macrophage solutions were incubated at 37° C. for 10 minutes, which was followed by the treatment with 10 μM arachidonic acid and an appropriate amount of compounds of this invention. The plate was incubated for another 10 minutes. The upper solution was collected using a micropipette and was subjected to determination of PGE2 amount in the solution. The amount of PGE2 present in the collected solution was determined either by a known radio-immuno assay or by a known enzyme-immunoassay [Methods in Enzymol. 86, 258 (1982); Methods in Enzymol. 187, 24 (1990)]. The extent of COX-2 inhibition by a compound of the present invention was calculated by assuming, that the amount of PGE2 formed with the treatment of 10 μg/ml arachidonic acid was used is the maximum possible amount of PGE2, and that the amount of PGE2 formed without the treatment of arachidonic acid is the minimum possible amount of PGE2.
(§3) In order to determine IC50 for a compound of this invention, enzymatic activities were measured at multiple concentrations of compounds of this invention around IC50 of the compound. Usually enzymatic activities at 4˜5 concentrations were measured to calculate out IC50 for a compound of this invention.

In another series the target is T2, COX-1 (Mus musculus, UniProt P22437).
T2 sequence (P22437 27-602): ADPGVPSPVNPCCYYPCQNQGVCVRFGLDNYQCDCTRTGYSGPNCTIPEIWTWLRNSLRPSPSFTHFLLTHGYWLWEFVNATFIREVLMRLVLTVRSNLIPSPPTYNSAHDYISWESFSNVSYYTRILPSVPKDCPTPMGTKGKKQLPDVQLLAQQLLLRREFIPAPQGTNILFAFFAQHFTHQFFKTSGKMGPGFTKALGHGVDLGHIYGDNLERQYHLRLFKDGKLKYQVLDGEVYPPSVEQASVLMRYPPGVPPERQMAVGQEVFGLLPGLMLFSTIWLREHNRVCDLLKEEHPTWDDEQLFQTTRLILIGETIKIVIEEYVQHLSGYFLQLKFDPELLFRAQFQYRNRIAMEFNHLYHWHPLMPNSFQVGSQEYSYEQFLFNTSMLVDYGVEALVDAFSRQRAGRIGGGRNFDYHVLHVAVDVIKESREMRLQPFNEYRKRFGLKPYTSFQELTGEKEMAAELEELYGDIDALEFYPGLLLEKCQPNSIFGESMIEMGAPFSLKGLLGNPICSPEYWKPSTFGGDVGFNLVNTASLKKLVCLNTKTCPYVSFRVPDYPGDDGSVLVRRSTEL
Briefly: Evaluation of COX-1 activity: PGE2 formation in mouse peritoneal macrophages without aspirin and LPS treatment. The class given is cell-based. As to the method: as §1, §2
The pellets dispersed as above were treated with 500 μM aspirin in order to knock out the activity of the COX-1 enzymes in the cells. The suspension was then diluted with the RPMI-1640 medium to contain 1×10^6 cells/ml. 100 μl of the suspension was added to each well of a 96-well ELISA plate. Then the plate was incubated for 2 hrs at 37° C. under 5% CO2 in order to fix the macrophages onto the plate. The cells, which were not fixed onto the plate were removed by washing with PBS two times. The purity of macrophages obtained thereby was confirmed by differential counting. The RPMI-1640 medium containing 3% fetal bovine serum albumin was added to each well of the plate, which was followed by stimulation with 10 μg/ml lipopolysaccharide (LPS). Usually 5×10^5 cells/ml were present by this preparation. The LPS-treated suspensions were incubated for 16 hours at 37° C. under 5% CO2 to induce COX-2. Then the culture medium was removed and the macrophages were washed two times with PBS. Then 130 μl RPMI-1640 culture medium was added to each well and the macrophage solutions were incubated at 37° C. for 10 minutes, which was followed by the treatment with 10 μM arachidonic acid and an appropriate amount of compounds of this invention. The plate was incubated for another 10 minutes. The upper solution was collected using a micropipette and was subjected to determination of PGE2 amount in the solution. The amount of PGE2 present in the collected solution was determined either by a known radio-immuno assay or by a known enzyme-immunoassay [Methods in Enzymol. 86, 258 (1982); Methods in Enzymol. 187, 24 (1990)]. The extent of COX-2 inhibition by a compound of the present invention was calculated by assuming, that the amount of PGE2 formed with the treatment of 10 μg/ml arachidonic acid was used is the maximum possible amount of PGE2, and that the amount of PGE2 formed without the treatment of arachidonic acid is the minimum possible amount of PGE2.
In the evaluation of COX-1 inhibitory activity by a compound of the present invention, the same procedures employed for evaluation of COX-2 activity were employed, except omitting the following two steps: 1) the treatment with aspirin for knockout of COX-1 activity and 2) treatment with LPS for induction of COX-2.
as §3

SMILES strings stand for the structures. In brackets after ≈: the same amount, converted by molar mass.

As usually defined, the melting point is the temperature of the solid-liquid transition. In turn, `CC1(C)OC(c2ccc(S(C)(=O)=O)cc2F)=C(c2cc(F)cc(F)c2)C1=O` [Example 326] displayed a melting point of 118 to 119 °C. Further, on COX-2, the “IC50, μg/ml COX-2” value is 0.03 µg/mL (≈ 0.0757 µM). Also, the “IC50, μg/ml COX-1” value against COX-1 was 20 µg/mL (≈ 50.5 µM).
Compound `CNS(=O)(=O)c1ccc(C2=C(c3ccccc3)C(=O)C(C)(C)O2)cc1Cl` [Example 372, 5-{3-Chloro-4-(N-methylaminosulfonyl)phenyl}-2,2-dimethyl-4-phenyl-3(2H)-furanone] gave a melting point of 136 to 137 °C. Moreover, at COX-2, the “IC50, μg/ml COX-2” value was 0.09 µg/mL (≈ 0.23 µM). Also, the “IC50, μg/ml COX-1” value against COX-1 stood at 200 µg/mL (≈ 510 µM).
For `CCC1(C)OC(c2ccc(S(N)(=O)=O)cc2)=C(c2ccsc2)C1=O` (stereo not shown) [Example 44, 5-{4-(Aminosulfonyl)phenyl}-2-ethyl-2-methyl-4-(3-thienyl)-3(2H)-furanone] the same measures were 120 to 121 °C, 0.101 µg/mL (≈ 0.278 µM) and above 10 µg/mL.
In turn, `CC1(C)OC(c2ccc(S(C)(=O)=O)cc2)=C(c2ccc(-c3ccccc3)cc2)C1=O` [Example 77] came in with a melting point of 150 to 153 °C. Besides, the “IC50, μg/ml COX-2” value on COX-2 was 0.003 µg/mL (≈ 0.00717 µM). Also, the “IC50, μg/ml COX-1” value on COX-1 stood at 5 µg/mL (≈ 11.9 µM).
For `CC1(C)OC(c2ccc(S(C)(=O)=O)c(F)c2)=C(c2c(F)cccc2F)C1=O` [Example 283] the same measures were 113 to 115 °C, 0.7 µg/mL (≈ 1.77 µM) and 90 µg/mL (≈ 227 µM).
For `CCC1(C)OC(c2ccc(S(N)(=O)=O)cc2)=C(c2cccc(OC)c2)C1=O` (stereo not shown) [Example 236] the same measures were 69 to 70 °C, 0.0097 µg/mL (≈ 0.025 µM) and 10.7 µg/mL (≈ 27.6 µM).
For `CCC1(C)OC(c2ccc(S(N)(=O)=O)cc2)=C(c2ccc(C(C)=O)cc2)C1=O` (stereo not shown) [Example 45, 4-(4-Acetylphenyl)-5-{4-(aminosulfonyl)phenyl}-2-ethyl-2-methyl-3(2H)-furanone] the same measures were 154 to 155 °C, 0.01 µg/mL (≈ 0.025 µM) and 1.07 µg/mL (≈ 2.68 µM).
`CS(=O)(=O)c1ccc(C2=C(c3cccc(Cl)c3)C(=O)C3(CCOCC3)O2)cc1` [Example 263]: the melting point is 96 to 99 °C. Besides, the “IC50, μg/ml COX-2” value on COX-2 is 0.03 µg/mL (≈ 0.0716 µM). On COX-1, the “IC50, μg/ml COX-1” value worked out at 50 µg/mL (≈ 119 µM).
For `CC1(C)OC(c2ccc(S(N)(=O)=O)cc2)=C(c2ccc(O)cc2)C1=O` [Example 151] the same measures were 164 to 165 °C, 0.0188 µg/mL (≈ 0.0523 µM) and above 10 µg/mL.
On to `CCC1(CC)OC(c2ccc(S(C)(=O)=O)cc2)=C(c2ccc(OC)c(F)c2)C1=O` [Example 50, 2,2-Diethyl-4-(3-fluoro-4-methoxyphenyl)-5-{4-(methylsulfonyl)phenyl}-3(2H)-furanone], for which the “IC50, μg/ml COX-2” value on COX-2 was 0.03 µg/mL (≈ 0.0717 µM). In addition, on COX-1, the “IC50, μg/ml COX-1” value came to 20 µg/mL (≈ 47.8 µM).
For `CS(=O)(=O)c1ccc(C2=C(c3cccc(F)c3)C(=O)C3(CCOCC3)O2)cc1` [Example 261, 3-(3-Fluorophenyl)-2-{4-(methylsulfonyl)phenyl}-1,8-dioxa-spiro[4,5]dec-2-en-4-one] the same measures were 1 µg/mL (≈ 2.48 µM) and 300 µg/mL (≈ 745 µM).
`CS(=O)(=O)c1ccc(C2=C(c3ccccc3)C(=O)C3(CCCC3)O2)cc1` [Example 53, 2-{(4-Methylsulfonyl)phenyl}-3phenyl-1-oxa-spiro[4,4]non-2-en-4-one]: the “IC50, μg/ml COX-2” value at COX-2 was found to be 0.03 µg/mL (≈ 0.0814 µM). For the same compound, on COX-1, the “IC50, μg/ml COX-1” value was 5 µg/mL (≈ 13.6 µM).
For `CCC1(C)OC(c2ccc(S(C)(=O)=O)cc2)=C(c2ccc(C)s2)C1=O` (stereo not shown) [Example 225] the same measures were 0.03 µg/mL (≈ 0.0797 µM) and 3 µg/mL (≈ 7.97 µM).
`Cc1cc(C2=C(c3cc(F)cc(F)c3)C(=O)C(C)(C)O2)ccc1S(C)(=O)=O` [Example 382, 4-(3,5-Difluorophenyl)-2,2-dimethyl-5-{3-methyl-4-(methylsulfonyl)phenyl}-3(2H)-furanone]: the “IC50, μg/ml COX-2” value against COX-2 stood at 0.08 µg/mL (≈ 0.204 µM). Further, the “IC50, μg/ml COX-1” value against COX-1 turned out to be 200 µg/mL (≈ 510 µM).
As for `CCC1(C)OC(c2ccc(S(C)(=O)=O)cc2)=C(c2cccc(OC)c2)C1=O` (stereo not shown) [Example 200], the IC50 is 0.776 µM at COX-2 (read-out: IC50, μg/ml COX-2 (converted)) and 77.6 µM on COX-1 (read-out: IC50, μg/ml COX-1 (converted)).
Take `CC(O)c1ccc(C2=C(c3ccc(S(C)(=O)=O)cc3)OC(C)(C)C2=O)cc1` (stereo not shown) [Example 111, 2,2-Dimethyl-4-{4-(1-hydroxyethyl)phenyl}-5-{4-(methylsulfonyl)phenyl}-3(2H)-furanone]: the “IC50, μg/ml COX-2” value against COX-2 came to 0.3 µg/mL (≈ 0.776 µM). In addition, at COX-1, the “IC50, μg/ml COX-1” value is 50 µg/mL (≈ 129 µM).
For `CSc1ccc(C2=C(c3cccc(Cl)c3)C(=O)C(C)(C)O2)cc1` [Example 168, 4-(3-chlorophenyl)-2,2-dimethyl-5-{4-(methylthio)phenyl}-3(2H)-furanone] the same measures were 0.5 µg/mL (≈ 1.45 µM) and 3 µg/mL (≈ 8.7 µM).

The values are drawn from patent US6492416B1, “4,5-diaryl-3(2H)-furanone derivatives as cyclooxygenase-2 inhibitors” (Pacific Corporation, priority 1999, dated 2002).
